The source of these data is the METLIN SMRT retention time set (Domingo-Almenara et al. 2019).

SMILES strings stand for the structures.

The series can be described thus: gradient 5% acetonitrile 3 min, to 50% in 2 min, to 85% in 15 min, held 3 min, 100 µL/min. The conditions noted are these: column: Zorbax Extend-C18 2.1 x 50 mm; eluents: water / acetonitrile, 0.1% formic acid. In short, it runs like this: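 Mixtures of ~100 pure standards were chromatographed on a Zorbax Extend-C18 column (2.1 × 50 mm, 1.8 μm) at 100 μL/min using water and acetonitrile, each with 0.1% formic acid. Detection used a quadrupole time-of-flight mass spectrometer in positive and negative ionization mode, and data collection spanned 3 months. Retention time was obtained from adduct peaks picked computationally and each checked manually.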
`Cc1cc(OC(=O)c2cc3ccccc3o2)c([N+](=O)[O-])c(=O)[nH]1` showed an RP-LC retention time of 1160 s.

With `CCN(CC)S(=O)(=O)c1ccc2c(c1)N(CC(=O)NCc1ccccc1)C(=O)C1CCCCN21` (centres undefined), the RP-LC retention time was determined as 945 s. For the compound `O=C(Nc1ccc(F)cc1)N1CCN(c2ccc(C(F)(F)F)cn2)CC1`, the RP-LC retention time was 921 s. In the case of `O=C(CC1=C2CCCCC2NC1=O)Nc1ccccc1` (centres undefined) it was 681 s; in that of `O=C(COc1ccccc1)N1CCC(CNS(=O)(=O)c2ccc(Cl)s2)CC1`, 843 s. Compound `Cc1ccc(CC(=O)NC2CCN(c3nnc4ccc(C(F)(F)F)cn34)CC2)cc1` yielded an RP-LC retention time of 815 s. The same measure for `O=c1c2cc(-c3cccs3)nn2cnn1Cc1nc(-c2ccccc2Cl)no1`: 1040 s. The same measure for `O=c1c2cc(-c3ccc4c(c3)OCO4)nn2ccn1Cc1nc(-c2cccc(F)c2)no1`: 1010 s; for `Cc1cc(C)n(-c2nc(CC(=O)Nc3ccc(N(C)C)cc3)cs2)n1`: 650 s. As for `Cc1ccn2cc(-c3ccc(NC(=O)CCC4CCCCC4)cc3)nc2n1`, the RP-LC retention time was 761 s. `O=C(Cn1ccc2ccn(CC3CC3)c2c1=O)N1CCOCC1`: the RP-LC retention time amounted to 682 s.

Compound `CC(C)CCNC(=O)C1CCCN(c2nc3ccsc3c(=O)n2Cc2ccc(F)cc2)C1` (centres undefined) registered an RP-LC retention time of 954 s. `COc1ccc(NC(=O)N2CCN(Cc3nc4cc(Cl)ccc4o3)CC2)cc1OC` showed an RP-LC retention time of 686 s. The same measure for `Nc1ccc(CCN2CCN(c3cccc(C(F)(F)F)c3)CC2)cc1`: 633 s; for `CCN(C(=O)C1CCCN(c2ncnc3c2nc2n3CCCCC2)C1)c1cc(C)ccc1C` (centres undefined): 905 s; for `COc1ccc(S(=O)(=O)N2CC3CN(C(=O)c4ccc(C#N)cc4)CC(C2)O3)cc1`: 773 s. For `CCCNC(=O)C1CCCN(c2nc3ncn(CC(=O)Nc4ccc5c(c4)CCC5)c(=O)c3s2)C1` (centres undefined), the RP-LC retention time is 762 s. In the case of `CCc1cc(C(=O)Nc2ccc(F)c(C)c2)nc2ccnn12` it was 1180 s; in that of `COc1ccc(-c2cc(N3CCC(NC(=O)c4ccc(Br)o4)CC3)n[nH]2)cc1`, 735 s; in that of `CCOc1ccc(S(=O)(=O)N2CCCC(C(=O)NCCc3ccc(OC)c(OC)c3)C2)cc1` (centres undefined), 884 s. In turn, `CCSc1nc2ccc(NS(=O)(=O)c3ccc(F)cc3)cc2s1` displayed an RP-LC retention time of 1010 s. The same measure for `Cc1ccc(C)c(CNC(=O)c2cn3c(n2)CCCC3)c1`: 622 s; for `Cc1nnc(N2CCCC(C(=O)NCCc3ccccc3)C2)c2nn(-c3ccccc3)c(C)c12` (centres undefined): 726 s; for `COc1cc(NC(=O)N2CCCN(c3ccc(=O)n(-c4ccc(F)cc4)n3)CC2)cc(OC)c1OC`: 702 s. `Cc1ccn2cc(-c3ccc(NS(=O)(=O)c4ccc(-c5csc(C)n5)s4)cc3)nc2n1` gave an RP-LC retention time of 679 s. The compound `COCCc1noc(-c2cnc3nc(C)ccc3c2Nc2ccccc2)n1` yielded an RP-LC retention time of 677 s. For the compound `CC1(C(=O)NCc2ccccc2)CCN(S(=O)(=O)c2ccc(Br)cc2)CC1`, the RP-LC retention time was 961 s. The compound `O=C(NCc1ccccn1)c1nnc(-c2ccc(S(=O)(=O)N3CCCCC3)cc2)o1` registered an RP-LC retention time of 732 s.

As to `Cc1ccc(NC(=O)NCC(c2cccnc2)c2cn(C)c3ccccc23)cc1Cl` (centres undefined), the RP-LC retention time is 773 s. In the case of `COCCNC(=O)COc1cc(C)nc(-c2ccc(Cl)cc2)n1` it was 828 s.

Take `CCCS(=O)(=O)N1CCC2(CC1)CC(OCc1ccccc1)CCO2` (centres undefined): the RP-LC retention time is 984 s.

For `COC(=O)c1c(-c2cccc(F)c2)noc1NCc1ccc(OC)cc1OC`, the RP-LC retention time came out at 548 s. Take `CCOC(=O)c1noc2nc(C)nc(N(C)Cc3ccccc3)c12`: the RP-LC retention time stood at 1060 s. With `Cc1ccc(-c2nnc(-c3nc(N4CCCCCC4)c4ccccc4n3)o2)cc1`, the RP-LC retention time came to 750 s. Take `Cc1ccc(-c2ncc(C(=O)NC(C)c3ccccn3)c(-c3ccncc3)n2)cc1` (centres undefined): the RP-LC retention time is 685 s. For the compound `CCc1ccc(NC(=O)N2CCC(c3nc4cccnc4n3C)C2)cc1` (centres undefined), the RP-LC retention time came out at 711 s. `CC1CCc2c(sc3nc(CCC(=O)N4CCC(C(N)=O)CC4)[nH]c(=O)c23)C1` (centres undefined): the RP-LC retention time is 697 s. The compound `CCn1ccc2sc(C)c(C(=O)NCc3ccc(Br)cc3)c2c1=O` returned an RP-LC retention time of 911 s.

In turn, `Cc1ccn2cc(-c3ccc(NC(=O)c4ccccc4I)cc3)nc2n1` showed an RP-LC retention time of 656 s. The same measure for `Fc1ccc(Cl)cc1-c1nc(Nc2ccncc2)c2nccnc2n1`: 648 s; for `O=C(Nc1ccccc1)N1CCc2nn(Cc3ccccc3)c(=O)n2CC1`: 736 s; for `Cc1c(C(=O)N2CCC(C(=O)NC3CCN(Cc4ccccc4)CC3)CC2)sc2nc[nH]c(=O)c12`: 568 s. In the case of `COc1ccc(C(=O)N2CCC3(C2)C(=O)Nc2ccccc23)cc1` (centres undefined) it was 683 s; in that of `O=C(c1ccc(Cn2cncn2)cc1)N1CCc2ccccc2C1`, 687 s. For the compound `CCOC(=O)c1[nH]c(C)c(CCC(=O)N2CCC(C(=O)NCCc3ccc(C)cc3)CC2)c1C`, the RP-LC retention time came to 843 s. In the case of `O=S(=O)(c1cccc2cccnc12)N1CCCn2nc(-c3cccnc3)cc2C1` it was 624 s; in that of `COc1ccc(OC)c(NC(=O)N2CC=C(c3cn(C)c4ncccc34)CC2)c1`, 882 s; in that of `Cc1ccc(CNC(=O)N(C)CCc2noc(-c3ccc(F)cc3)n2)cc1`, 915 s. In the case of `CCNc1nc(C)cc(N2CCN(C(=O)Nc3ccccc3)CC2)n1` it was 636 s; in that of `Cc1ccc(C(=O)NC2CCCCCCC2)cc1NC(=O)C1=CSCCO1`, 949 s.

With `COC(=O)C1=CN(c2cccc(C#N)c2)c2ccc(F)cc2S1(=O)=O`, the RP-LC retention time was 787 s. In turn, `COC(=O)c1ccc2c(=O)n(Cc3ccc(F)cc3)c(N3CCCC3)nc2c1` yielded an RP-LC retention time of 1060 s. The same measure for `Cc1cccc(NC(=O)c2csc(-c3cn(C)c4ncccc34)n2)c1C`: 1050 s; for `O=C(c1ccc(OCC2CCCN2C(=O)COc2ccc(F)cc2)cc1)N1CCOCC1` (centres undefined): 778 s; for `CCOC(=O)C(=O)Nc1cccc(F)c1`: 723 s.

`COc1ccccc1N1CCN(c2cc(SCC(=O)Nc3ccc(F)c(Cl)c3)ncn2)CC1`: the RP-LC retention time is 1090 s.

`Cc1cc(N2CCC(NC(=O)Nc3ccccc3C(F)(F)F)C2=O)ccc1F` (centres undefined) showed an RP-LC retention time of 915 s.

For `Cc1cc2nc(C(=O)OC(C)C)c(N3CCN(c4ccccn4)CC3)nc2cc1C`, the RP-LC retention time worked out at 791 s. Turning to `CC(C)Cc1ccc(S(=O)(=O)N2CCC3(CC2)c2nccn2CCN3C)cc1`, the RP-LC retention time was 777 s. As for `O=C(CN1CCC2(CC1)N=C(c1ccc(Cl)cc1)C(=O)N2)Nc1ccc2c(c1)OCCO2`, the RP-LC retention time is 670 s. The same measure for `Cc1cccc(OCc2nc(CCN(C)C(=O)Nc3ccccc3C)no2)c1`: 919 s; for `COc1ccc(OC)c(-c2ccc(=O)n(CCc3nc(-c4cccc(F)c4)no3)n2)c1`: 974 s; for `Cc1cc(C)cc(C(=O)N2C[C@@H]3C[C@H](NC(=O)c4cccnc4)[C@H]2C3)c1`: 658 s. The same measure for `COc1cccc(C(=O)N(CN2CCCC2=O)c2cccc(C(F)(F)F)c2)c1`: 757 s. Compound `CCOC(=O)CSc1nc2c(sc3ccccc32)c(=O)n1Cc1ccco1` yielded an RP-LC retention time of 1040 s. The same measure for `O=C(NCCCN1CCOCC1)C1CCCN(c2nccnc2Sc2ccccc2)C1` (centres undefined): 651 s; for `O=C(CCc1conc1-c1ccc(F)cc1)NC1CCCCCC1`: 969 s; for `O=C(Cc1ccc(NC(=O)C2CCCC2)cc1)NCC(F)(F)F`: 727 s. On to `COCCN1C(=O)CC[C@]2(C(=O)N(C)Cc3cccnc3)CCCC[C@@H]12`, for which the RP-LC retention time amounted to 544 s.

As to `CC(C)CCNC(=O)C1CCN(c2nc3ccc(-c4cncnc4)nc3s2)CC1`, the RP-LC retention time is 824 s. In the case of `COC(=O)c1cc(S(=O)(=O)N2CCCC2C(=O)Nc2cccc3ccccc23)cn1C` (centres undefined) it was 916 s; in that of `O=C(Cc1ccsc1)N1CCC(n2c(-c3ccco3)nc3cccnc32)C1` (centres undefined), 689 s.

In turn, `Cc1ccc(S(=O)(=O)NC2CCN(c3ccccc3)C2=O)cc1` (centres undefined) displayed an RP-LC retention time of 876 s. The same measure for `Cc1cc(C(=O)Nc2ccc(F)cc2F)nc2cc(-c3ccco3)nn12`: 1130 s; for `O=C(c1ccco1)N1CCN(C(=O)C2CN(S(=O)(=O)C3CC3)CC23CCCCC3)CC1` (centres undefined): 758 s. For the compound `CCOC(=O)N1CCN(Cc2c(NC(=O)c3ccccc3)sc(C)c2C)CC1`, the RP-LC retention time was 630 s. With `COc1ccc(C(O)Cn2ccn3nc(-c4ccc(C(C)C)cc4)cc3c2=O)cc1` (centres undefined), the RP-LC retention time worked out at 1060 s. On to `O=C(Nc1ccc(Cl)cc1)N1CCc2[nH]cnc2C1c1ccncc1` (centres undefined), for which the RP-LC retention time turned out to be 565 s. `CCC(=O)Nc1ccc(-n2cnc(C(=O)N3CCN(c4ccccc4)CC3)c2)nc1`: the RP-LC retention time came out at 708 s.
